Tested on: Psylliodes chrysocephala (PSYICH; rape flea beetle)
Assay: Field trial: flea beetle attack on winter oilseed rape, counted as crop plants with eating damage
Type: in vivo
Description: A field trial to investigate methods for flea beetle management in Brassica crops was carried out under the regime of Good Experimental Practice (GEP) in Germany, federal state of Niedersachsen. The trial was set up in a 3 time replicated, one factorial randomized block design. The plot size was 45 m^2.
The winter oilseed rape (WOSR) variety used in the trial was the commercial hybrid “Edimax CL®” carrying a tolerance against imidazolinone herbicides. As trap plant Sinapis alba, variety “Ascot” was used.
All WOSR seeds had been commercially treated with the product Aatiram65®, containing the active ingredient Thiram (650 g/I), at a dose rate of […] seeds to protect the seed from emergence diseases.
Only the WOSR seeds for the respective plots had been treated with 160 ml/100 kg seeds with a flowable concentrate containing 8% of Bacillus amyloliquefaciens ssp. plantarum MBI600 as flea beetle repellant.
For the trap plants, no seed treatment was applied.
At the day of seeding, the trap plants were seeded first in the respective plots at a seed rate of 3.6 k/ha using a plot seeder. Afterwards, the plots with WOSR treated with Aatiram65® only were seeded, then WOSR treated on top with Bacillus amyloliquefaciens ssp. plantarum MBI600. Thus, any contamination/mixing of the different seeds and seed treatments was prevented. In both cases, a WOSR seeding rate of 50 seeds per m^2 was targeted.
In order to control any undesired vegetation besides the crop and the trap plants, the commercial broad spectrum herbicide Butisan Top® was applied at a dose rate of 2.0 I/ha pre-emergence of the crop and trap plants.
After the crop was mature enough to overcome flea beetle damage (2-4 true leaf stage (BBCH 12-14)), the plots were sprayed with Pulsar 40 (active ingredient Imazamox) at a dose rate of 0.875 I/ha.
The intensity of the flea beetle attack was evaluated 26 days after seeding (DAS) and 33 DAS by counting the number of crop plants with eating damage. On the first assessment, the crop plants were in 1-2 true leaf stage (BBCH 11-12), at the later assessment, the crop plants had developed to the 1-4 true leaf stage (BBCH 11-14).

Bacillus amyloliquefaciens ssp. plantarum MBI600 [MBI 600]
infestation / number of crop plants attacked by flea beetles (in words) (field trial, both days of assessment): did not reduce the infestation | plants with eating damage (26 DAS) (number of crop plants with eating damage, 26 days after seeding, WOSR Edimax CL, BBCH 11-12, MBI600 seed treatment 160 ml/100 kg seeds of 8% flowable concentrate): 34 | plants with eating damage (33 DAS) (number of crop plants with eating damage, 33 days after seeding, WOSR Edimax CL, BBCH 11-14, MBI600 seed treatment 160 ml/100 kg seeds of 8% flowable concentrate): 34 | plants with eating damage (26 DAS), rel. (relative to treatment 1 (none) = 100, 26 days after seeding): 103 | plants with eating damage (33 DAS), rel. (relative to treatment 1 (none) = 100, 33 days after seeding): 91
